Assay results reported in ChEMBL document CHEMBL5360521, “A chemical perspective on the modulation of TEAD transcriptional activities: Recent progress, challenges, and opportunities” (Eur J Med Chem, 2022).
Values belong to the molecule of their own block, whether it stands above or below them.

Columns and labels:
[1] = Inhibition of TEAD auto palmitoylation (unknown origin); set-up: species or system Homo sapiens
NCI-H226 [2] = test: Antitumor activity against human NCI-H226 cells xenografted BALB/c mouse assessed as tumor growth inhibition at 2 mg/kg, po qd for 28 days relative to control; type: functional; details: NCI-H226, 672 h, time 28 day, read-out: TGI
NCI-H226 [3] = test: Antitumor activity against human NCI-H226 cells xenografted BALB/c mouse assessed as tumor growth inhibition at 10 mg/kg, po qd for 28 days relative to control; type: functional; details: NCI-H226, 672 h, time 28 day, read-out: TGI
NCI-H226 [4] = test: Antiproliferative activity against human NCI-H226 cells assessed as cells growth inhibition incubated for 144 hrs by CCK-8 assay; type: functional, cell-based; details: NCI-H226, 144 h
MSTO-211H = test: Antiproliferative activity against human MSTO-211H cells assessed as cell growth inhibition incubated for 144 hrs by CCK-8 assay; type: functional, cell-based
[5] = Antiproliferative activity against human Mero-14 cells assessed as cell growth inhibition incubated for 144 hrs by CCK-8 assay; type: functional, cell-based; details: Mero-14, 144 h
[6] = target: Transcriptional enhancer factor TEF-5 (Homo sapiens, UniProt Q99594); test: Inhibition of N-terminal 6xHis-tagged human TEAD3 auto palmitoylation (209 to 426 residues) expressed in Escherichia coli BL21 (DE3) cells by ABPP assay
Sequence of Transcriptional enhancer factor TEF-5 (Q99594 whole entry, the tested form may be a part): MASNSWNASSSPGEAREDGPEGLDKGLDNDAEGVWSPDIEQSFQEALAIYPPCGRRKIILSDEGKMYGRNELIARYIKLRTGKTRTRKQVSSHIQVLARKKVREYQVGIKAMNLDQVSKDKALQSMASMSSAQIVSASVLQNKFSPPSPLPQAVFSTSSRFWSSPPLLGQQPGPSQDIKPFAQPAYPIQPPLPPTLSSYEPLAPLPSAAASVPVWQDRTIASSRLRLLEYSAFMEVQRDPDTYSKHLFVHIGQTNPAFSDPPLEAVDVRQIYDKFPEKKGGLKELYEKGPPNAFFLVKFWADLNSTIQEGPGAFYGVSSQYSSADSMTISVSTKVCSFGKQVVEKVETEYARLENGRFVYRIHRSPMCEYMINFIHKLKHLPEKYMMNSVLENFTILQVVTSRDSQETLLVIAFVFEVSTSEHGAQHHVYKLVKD

[7] = target: Transcriptional enhancer factor TEF-1 (Homo sapiens, UniProt P28347); test: Inhibition of N-terminal 6xHis-tagged human TEAD1 auto palmitoylation (209 to 426 residues) expressed in Escherichia coli BL21 (DE3) cells by ABPP assay
Sequence of Transcriptional enhancer factor TEF-1 (P28347 whole entry, the tested form may be a part): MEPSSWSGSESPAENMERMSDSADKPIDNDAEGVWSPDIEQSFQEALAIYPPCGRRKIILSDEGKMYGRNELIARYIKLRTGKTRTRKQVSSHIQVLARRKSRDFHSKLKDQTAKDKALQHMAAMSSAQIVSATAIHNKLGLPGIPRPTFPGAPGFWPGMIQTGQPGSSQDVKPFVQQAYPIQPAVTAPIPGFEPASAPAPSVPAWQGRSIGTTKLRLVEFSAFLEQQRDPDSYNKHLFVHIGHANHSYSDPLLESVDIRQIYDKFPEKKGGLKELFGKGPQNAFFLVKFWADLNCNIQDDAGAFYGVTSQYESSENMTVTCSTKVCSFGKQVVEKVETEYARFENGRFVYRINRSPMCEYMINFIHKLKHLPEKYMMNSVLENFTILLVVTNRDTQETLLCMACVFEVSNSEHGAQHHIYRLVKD

[8] = Inhibition of YAP/TEAD in HEK293 cells by Split Gaussia Luciferase Assay; type: cell-based, HEK293T; details: Homo sapiens, HEK-293T

EC50 [1]: 25 nM
Structure (SMILES): CNS(=O)(=O)c1ccc(NCc2ccc(C(F)(F)F)cc2)c(-c2cn(C)cn2)c1

Structure (SMILES): C=C(F)C(=O)N1CC(n2nc(-c3ccc(C(F)(F)F)nc3)c3cccnc32)C1
inhibition in vivo at 2 mg/kg (NCI-H226 [2]): 67%

Structure (SMILES): C=C(F)C(=O)N1CC(n2nc(-c3ccc(C(F)(F)F)cc3)c3cccnc32)C1
inhibition in vivo at 10 mg/kg (NCI-H226 [3]): 101%

IC50 (NCI-H226 [4]): < 100 nM
Structure (SMILES): C=CC(=O)Nc1ccc(C)c(Oc2ccc(Cl)cc2)c1
IC50 (MSTO-211H): < 100 nM
IC50 [5]: < 100 nM

IC50 [6]: 610 nM
IC50 [7]: 580 nM
Structure (SMILES): C=CC(=O)N1CCC(CCOc2ccccc2)CC1

IC50 [8]: 800 nM
Structure (SMILES): C=CC(=O)N1CCC(C)(Nc2cccc(C(F)(F)F)c2)C1 (centres undefined)
